According to patent US7985753B2, “Substituted pyrazolo[1,5-A]pyrimidines as metabotropic glutamate receptor modulators” (MERZ PHARMA GmbH & Co. KGaA, priority 2006, dated 2011):

molecular target: metabotropic glutamate receptor (mGluR5) (Homo sapiens, UniProt P41594); experiment: Activity as mGluR5 modulator, test not specified; conditions: not given
Sequence (P41594 21-1212): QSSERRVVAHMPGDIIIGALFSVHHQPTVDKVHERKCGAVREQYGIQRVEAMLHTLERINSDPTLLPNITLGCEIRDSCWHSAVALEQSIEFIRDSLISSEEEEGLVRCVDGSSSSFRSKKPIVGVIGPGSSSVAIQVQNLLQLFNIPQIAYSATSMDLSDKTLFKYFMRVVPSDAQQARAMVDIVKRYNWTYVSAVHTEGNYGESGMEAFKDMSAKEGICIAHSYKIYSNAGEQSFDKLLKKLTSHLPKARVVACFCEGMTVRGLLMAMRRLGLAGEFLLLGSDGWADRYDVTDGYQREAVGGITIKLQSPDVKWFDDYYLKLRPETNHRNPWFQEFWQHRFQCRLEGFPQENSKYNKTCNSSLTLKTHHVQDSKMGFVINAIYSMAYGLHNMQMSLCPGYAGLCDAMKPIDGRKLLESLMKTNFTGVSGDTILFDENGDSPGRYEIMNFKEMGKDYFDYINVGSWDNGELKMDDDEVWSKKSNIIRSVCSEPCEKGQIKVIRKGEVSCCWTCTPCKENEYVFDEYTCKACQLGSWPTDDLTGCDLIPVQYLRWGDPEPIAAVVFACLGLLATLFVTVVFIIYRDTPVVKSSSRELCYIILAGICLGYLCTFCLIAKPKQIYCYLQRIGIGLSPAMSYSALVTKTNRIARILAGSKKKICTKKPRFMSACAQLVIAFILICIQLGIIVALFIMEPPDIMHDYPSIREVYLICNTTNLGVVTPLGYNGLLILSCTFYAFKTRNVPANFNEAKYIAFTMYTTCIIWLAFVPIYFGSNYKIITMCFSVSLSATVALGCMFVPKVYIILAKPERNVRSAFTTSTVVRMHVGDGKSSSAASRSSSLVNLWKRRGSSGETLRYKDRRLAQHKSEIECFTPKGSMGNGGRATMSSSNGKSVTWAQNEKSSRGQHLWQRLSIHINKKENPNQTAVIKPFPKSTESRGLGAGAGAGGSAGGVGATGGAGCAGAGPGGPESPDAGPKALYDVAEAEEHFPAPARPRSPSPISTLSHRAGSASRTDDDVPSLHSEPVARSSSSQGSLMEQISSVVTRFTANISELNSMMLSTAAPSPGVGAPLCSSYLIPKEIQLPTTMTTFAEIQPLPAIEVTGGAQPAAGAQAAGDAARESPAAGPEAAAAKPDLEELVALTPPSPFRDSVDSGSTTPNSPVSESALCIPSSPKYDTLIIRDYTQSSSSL

| activity as metabotropic glutamate receptor (mGluR5) modulator | SMILES |
| --- | --- |
| no particular activity | O=C(c1cc2ncc(Br)cn2n1)N1CCOCC1 [Example B310, (6-Bromopyrazolo[1,5-a]pyrimidin-2-yl)-morpholin-4-yl-methanone] |
| no particular activity | O=C(c1cc2ncc(Br)cn2n1)N1CCCCC1 [Example B308, (6-Bromopyrazolo[1,5-a]pyrimidin-2-yl)-piperidin-1-yl-methanone] |

molecular target: T1, transmembrane allosteric modulatory sites of mGluR5 receptors in cortical membranes (Rattus norvegicus, UniProt P31424); experiment: [^3H]-MPEP binding assay in rat cortical membranes; conditions: read-out: mGluR5_M_MPEP_r_CTX_IC50
T1 construct: from tissue; host or cells: rat brain cortex membranes
T1 sequence (P31424 21-1203): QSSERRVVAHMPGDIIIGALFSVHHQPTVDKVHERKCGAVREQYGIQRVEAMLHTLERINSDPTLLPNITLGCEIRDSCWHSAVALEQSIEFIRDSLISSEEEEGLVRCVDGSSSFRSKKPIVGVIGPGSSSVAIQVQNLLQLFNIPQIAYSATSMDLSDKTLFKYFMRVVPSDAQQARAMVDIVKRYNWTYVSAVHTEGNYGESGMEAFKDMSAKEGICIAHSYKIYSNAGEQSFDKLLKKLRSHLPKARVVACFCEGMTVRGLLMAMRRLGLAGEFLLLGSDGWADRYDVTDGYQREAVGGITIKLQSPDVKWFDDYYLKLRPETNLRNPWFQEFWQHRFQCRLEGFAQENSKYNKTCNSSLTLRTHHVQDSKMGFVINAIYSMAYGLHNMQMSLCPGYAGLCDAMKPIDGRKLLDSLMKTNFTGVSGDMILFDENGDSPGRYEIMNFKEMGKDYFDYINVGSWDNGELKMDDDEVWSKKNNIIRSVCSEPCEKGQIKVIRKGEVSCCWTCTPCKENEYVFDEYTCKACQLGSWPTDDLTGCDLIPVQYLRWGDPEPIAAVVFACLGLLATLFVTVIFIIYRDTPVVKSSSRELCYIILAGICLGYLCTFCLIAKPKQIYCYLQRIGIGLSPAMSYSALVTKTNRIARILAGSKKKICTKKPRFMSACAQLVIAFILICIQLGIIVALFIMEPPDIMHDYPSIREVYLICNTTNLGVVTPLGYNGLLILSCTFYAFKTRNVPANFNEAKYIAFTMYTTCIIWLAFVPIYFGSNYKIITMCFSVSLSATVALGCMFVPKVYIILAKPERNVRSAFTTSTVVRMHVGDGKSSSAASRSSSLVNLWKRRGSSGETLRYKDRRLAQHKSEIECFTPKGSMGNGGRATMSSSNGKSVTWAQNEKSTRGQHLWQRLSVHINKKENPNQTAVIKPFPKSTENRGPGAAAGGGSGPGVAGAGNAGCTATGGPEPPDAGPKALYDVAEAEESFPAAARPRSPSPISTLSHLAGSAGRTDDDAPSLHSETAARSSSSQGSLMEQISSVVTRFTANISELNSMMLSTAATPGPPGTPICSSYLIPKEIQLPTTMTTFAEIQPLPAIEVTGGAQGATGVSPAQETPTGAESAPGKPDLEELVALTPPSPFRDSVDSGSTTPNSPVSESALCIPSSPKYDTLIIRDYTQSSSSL
Description: Male Sprague-Dawley rats (200-250 g) are decapitated and their brains are removed rapidly. The cortex is dissected and homogenized in 20 volumes of ice-cold 0.32 M sucrose using a glass-Teflon homogenizer. The homogenate is centrifuged at 1000×g for 10 minutes. The pellet is discarded and the supernatant centrifuged at 20,000×g for 20 minutes. The resulting pellet is re-suspended in 20 volumes of distilled water and centrifuged for 20 minutes at 8000×g. Then the supernatant and the buffy coat are centrifuged at 48,000×g for 20 minutes in the presence of 50 mM Tris-HCl, pH 8.0. The pellet is then re-suspended and centrifuged two to three more times at 48,000×g for 20 minutes in the presence of 50 mM Tris-HCl, pH 8.0. All centrifugation steps are carried out at 4° C. After resuspension in 5 volumes of 50 mM Tris-HCl, pH 8.0 the membrane suspension is frozen rapidly at −80° C.
On the day of assay the membranes are thawed and washed four times by resuspension in 50 mM Tris-HCl, pH 8.0 and centrifugation at 48,000×g for 20 minutes and finally re-suspended in 50 mM Tris-HCl, pH 7.4. The amount of protein in the final membrane preparation (500-700 μg/ml) is determined according to the method of Lowry (Lowry O. H. et al. 1951. J. Biol. Chem. 193, 256-275).
Alternatively, assays are performed with [^3H]-MMPEP (2-(3-methoxyphenylethynyl)-6-methylpyridine hydrochloride) as radioligand. The incubations are continued at room temperature for 60 minutes (equilibrium is achieved under the conditions used). […] Incubations are terminated using a Millipore filter system. The samples are rinsed twice with 4 ml of ice-cold assay buffer over glass fibre filters (Schleicher & Schuell, Germany) under a constant vacuum. Following separation and rinse, the filters are placed into scintillation liquid (5 ml Ultima Gold, Perkin Elmer, Germany) and radioactivity retained on the filters is determined with a conventional liquid scintillation counter (Canberra Packard, Germany).

| SMILES | IC50 [µM] |
| --- | --- |
| CC1CN(C(=O)c2cc3ncc(Cl)cn3n2)C(C)c2ccccc21 (centres unmarked) [drawing 457, (6-Chloro-pyrazolo[1,5-a]pyrimidin-2-yl)-(1,4-dimethyl-3,4-dihydro-1H-isoquinolin-2-yl)-methanone] | 0.118 |
| CC1c2cc(F)ccc2CCN1C(=O)c1cc2ncc(Br)cn2n1 (centres unmarked) [drawing 454, (6-Bromo-pyrazolo[1,5-a]pyrimidin-2-yl)-(7-fluoro-1-methyl-3,4-dihydro-1H-isoquinolin-2-yl)-methanone] | 0.03 |
| COc1ccc2c(c1)CCN(C(=O)c1cc3ncc(Cl)cn3n1)C2C (centres unmarked) [drawing 460, (6-Chloro-pyrazolo[1,5-a]pyrimidin-2-yl)-(6-methoxy-1-methyl-3,4-dihydro-1H-isoquinolin-2-yl)-methanone] | 0.027 |
| COc1cc2c(cc1O)CCN(C(=O)c1cc3ncc(Br)cn3n1)C2C (centres unmarked) [drawing 453, 2-[(6-bromopyrazolo[1,5-a]pyrimidin-2-yl)carbonyl]-7-methoxy-1-methyl-1,2,3,4-tetrahydro-6-isoquinolinol] | 0.06 |
| COc1ccc2c(c1)CCN(C(=O)c1cc3ncc(Br)cn3n1)C2C (centres unmarked) [drawing 459, (6-Bromo-pyrazolo[1,5-a]pyrimidin-2-yl)-(6-methoxy-1-methyl-3,4-dihydro-1H-isoquinolin-2-yl)-methanone] | 0.02 |

Next, values leading:

| IC50 [µM] | SMILES |
| --- | --- |
| 0.01 | CC1c2cccc(F)c2CCN1C(=O)c1cc2ncc(Br)cn2n1 (centres unmarked) [drawing 455, (6-Bromo-pyrazolo[1,5-a]pyrimidin-2-yl)-(5-fluoro-1-methyl-3,4-dihydro-1H-isoquinolin-2-yl)-methanone] |
| 0.04 | CC1c2ccc(F)cc2CCN1C(=O)c1cc2ncc(Cl)cn2n1 (centres unmarked) [drawing 456, (6-Chloro-pyrazolo[1,5-a]pyrimidin-2-yl)-(6-fluoro-1-methyl-3,4-dihydro-1H-isoquinolin-2-yl)-methanone] |
| 0.021 | CC1c2cccc(Br)c2CCN1C(=O)c1cc2ncc(Cl)cn2n1 (centres unmarked) [drawing 461, (5-Bromo-1-methyl-3,4-dihydro-1H-isoquinolin-2-yl)-(6-chloro-pyrazolo[1,5-a]pyrimidin-2-yl)-methanone] |
| 0.107 | O=C(c1cc2ncc(Cl)cn2n1)N1CCc2ncc(Br)cc2C1 [drawing 462, (3-Bromo-7,8-dihydro-5H-[1,6]naphthyridin-6-yl)-(6-chloro-pyrazolo[1,5-a]pyrimidin-2-yl)-methanone] |
